Reference: US11590129B2, “Combination therapy with an antitumor alkaloid” (PHARMA MAR, S.A., priority 2010, dated 2023)
Where two headings read alike, the source gives them in different places.

Tests used:
[1] = system: PC-3 human prostate cancer cell line; assay: cells; conditions: Homo sapiens, PC-3, 72 h
Procedure: (§1) a. […] Briefly, cells were harvested and seeded in 96 well microtiter plates at a density of 5,000 cells in 150 μL of culture medium and incubated for 24 hours in drug-free medium before treatment with vehicle alone or test compounds for 72 h.
(§2) The cytotoxic effect was measured by the MTT reduction assay, in which 3-(4,5-Dimethylthiazol-2-yl)-2,5-diphenyltetrazolium bromide, a tetrazole, which is reduced to purple formazan in the mitochondria of living cells, was used. MTT (50 μL of 1 mg/mL stock solution) was added to the wells and incubated for 8 hours at 37° C. until formazan crystals were formed. After gently removing the culture medium, DMSO was added to dissolve the insoluble purple formazan product into a colored solution. […] Results were expressed as percentage of control cell growth.
(§3) b. In a second set of assays, A549 human tumor cells were incubated with PM01183 in combination with each of the agents mentioned above.
(§4) As a visual aid, response values were plotted on a scatter plot with dose ratios given on the x-axis and % response values on the y-axis. […] In cases where response values at the two endpoints were approximately equivalent, points lying above or below this predicted line of additivity could be interpreted as representing antagonistic or synergistic drug interaction, respectively.
(§5) Additional serial dilutions were prepared in serum-free culture medium to achieve a final 4× concentration. Aliquots of 50 μL of each diluted compound were added per well.
PC-3 was the human prostate adenocarcinome cell line selected for this assay.

A2780 tumors = assay: Human ovarian tumor xenografts (A2780) in athymic nude mice, tumor volume % T/C; format: in vivo
Procedure: Female athymic nude mice (Harlan Laboratories Models, S.L. (Barcelona, Spain) were utilized for all experiments. Animals were housed in individually ventilated cages, up to ten per cage in a 12-hour light-dark cycle at 21-23° C. and 40-60% humidity. The mice were allowed free access to irradiated standard rodent diet and sterilized water. Animals were acclimated for at least 5 days prior to tumor implantation with a tumor cell suspension.
The formula to calculate volume for a prolate ellipsoid was used to estimate tumor volume (mm^3) from 2-dimensional tumor measurements: Tumor volume (mm^3)=[L×W^2]÷2, where L is the length and it is the longest diameter in mm, and W is the width and it is the shortest diameter in mm of a tumor. Assuming unit density, volume was converted to weight (i.e., 1 mm^3=1 mg). Tumor volume and animal body weights were measured 2-3 times per week starting form the first day of treatment (Day 0).
PM01183 was provided in the form of vials of lyophilized PM01183 cake which was reconstituted with water for infusion to a concentration of 0.2 mg/mL. The PM01183 stock solution was further diluted in 5% glucose solution for injection to the dosing formulation concentrations. […] Vinorelbine was provided as a solution prepared by diluting the product with 0.9% saline solution.
Dose level groups were administered either as single agents or in combination.
Comparison of the median tumor volume in the treatment groups (T) to the median tumor volume in the control group (T/C×100%) was used for evaluation of the antitumor efficacy.
Day 9 for PM01183 and vinorelbine study) using the median-effect principle (Chou T. C. Pharmacol. Rev.

[2] = system: MDA-MB-231 human breast adenocarcinoma cell line; assay: cells; conditions: Homo sapiens, MDA-MB-231, 72 h
Procedure: as §1, §2, §3, §4, §5

[3] = system: RXF-393 human kidney carcinoma cell line; assay: cells; conditions: Homo sapiens, RXF 393, 72 h
Procedure: as §1, §2, §3, §4, §5

[4] = system: HT-29 human colon adenocarcinoma cell line; assay: cells; conditions: Homo sapiens, HT-29, 72 h
Procedure: as §1, §2, §3, §4, §5
HT-29 was the human colon adenocarcinoma cell line selected for this assay.

[5] = system: HGC-27 human gastric carcinoma cell line; assay: cells; conditions: Homo sapiens, HGC-27, 72 h
Procedure: as §1, §2, §3, §4, §5
HGC-27 was the human gastric carcinoma cell line selected for this assay.

[6] = system: A673 human rhabdomyosarcoma cell line; assay: cells; conditions: Homo sapiens, A673, 72 h
Procedure: as §1, §2, §3, §4, §5
A673 was the human rhabdomyosarcoma cell line selected for this assay.

[7] = system: HepG2 human hepatocellular liver carcinoma cell line; assay: MTT cytotoxicity assay in HepG2 cells: IC50 of single agents and combinations with PM01183; format: cell-based; conditions: Homo sapiens
Procedure: as §1, §2, §3, §4, §5
HepG2 was the human hepatocellular liver carcinoma cell line selected for this assay.

[8] = system: IGROV-1 human ovarian adenocarcinoma cell line; assay: cells; conditions: Homo sapiens, IGROV-1, 72 h
Procedure: as §1, §2, §3, §4, §5
IGROV-1 was the human ovarian adenocarcinoma cell line selected for this assay.

[9] = system: A549 human lung carcinoma cell line; assay: MTT cytotoxicity assay in A549 cells: IC50 of single agents and combinations with PM01183; format: cell-based; conditions: Homo sapiens, A549, 72 h
Procedure: as §5
A549 was the human lung carcinoma cell line selected for this assay.
as §1, §2, §3, §4

[10] = vinorelbine 4.0 mg/kg iv days 0,7
[11] = vinorelbine 8.0 mg/kg iv days 0,7
[12] = paclitaxel 6.25 mg/kg iv days 0,7
[13] = paclitaxel 12.5 mg/kg iv days 0,7
[14] = paclitaxel 18.75 mg/kg iv days 0,7
[15] = paclitaxel 25 mg/kg iv days 0,7

SMILES: CC(C)C(=O)Nc1ccc([N+](=O)[O-])c(C(F)(F)F)c1 [Flutamide, flutamide]
- IC50 [1]: 49000 nM

SMILES: CCC1=C[C@@H]2CN(C1)Cc1c([nH]c3ccccc13)[C@@](C(=O)OC)(c1cc3c(cc1OC)N(C)[C@H]1[C@@](O)(C(=O)OC)[C@H](OC(C)=O)[C@]4(CC)C=CCN5CC[C@]31[C@@H]54)C2 [Vinorelbine, vinorelbine]
- % T/C on day 0 (A2780 tumors; [10]): 97.2%
- % T/C on day 2 (A2780 tumors; [10]): 88.6%
- % T/C on day 5 (A2780 tumors; [10]): 69.3%
- % T/C on day 7 (A2780 tumors; [10]): 81.7%
- % T/C on day 9 (A2780 tumors; [10]): 77.3%
- % T/C on day 0 (A2780 tumors; [11]): 97.6%
- % T/C on day 2 (A2780 tumors; [11]): 79.5%
- % T/C on day 5 (A2780 tumors; [11]): 45.0%
- % T/C on day 7 (A2780 tumors; [11]): 54.2%
- % T/C on day 9 (A2780 tumors; [11]): 47.9%
- IC50 [2]: 12000 nM
- IC50 [3]: 8500 nM
- IC50 [1]: 10000 nM
- IC50 [4]: 30 nM
- IC50 [5]: 65 nM
- IC50 [6]: 50 nM
- IC50 ([7]; HepG2, 72 hours drug exposure, MTT, read-out: IC50): 1020 nM
- IC50 [8]: 1390 nM

SMILES: O=C(CCCCCCC(=O)Nc1ccccc1)NO [Vorinostat, vorinostat]
- IC50 [6]: 2160 nM
- IC50 [8]: 2880 nM

SMILES: CC(=O)O[C@H]1C(=O)[C@@]2(C)[C@H]([C@H](OC(=O)c3ccccc3)[C@]3(O)C[C@H](OC(=O)[C@H](O)[C@@H](NC(=O)c4ccccc4)c4ccccc4)C(C)=C1C3(C)C)[C@]1(OC(C)=O)CO[C@@H]1C[C@@H]2O [Paclitaxel, paclitaxel]
- % T/C on day 0 (A2780 tumors; [12]): 94.3%
- % T/C on day 3 (A2780 tumors; [12]): 60.2%
- % T/C on day 5 (A2780 tumors; [12]): 79.7%
- % T/C on day 7 (A2780 tumors; [12]): 81.3%
- % T/C on day 10 (A2780 tumors; [12]): 59.2%
- % T/C on day 0 (A2780 tumors; [13]): 96.2%
- % T/C on day 3 (A2780 tumors; [13]): 62.5%
- % T/C on day 5 (A2780 tumors; [13]): 73.9%
- % T/C on day 7 (A2780 tumors; [13]): 62.5%
- % T/C on day 10 (A2780 tumors; [13]): 50.8%
- % T/C on day 0 (A2780 tumors; [14]): 95.0%
- % T/C on day 3 (A2780 tumors; [14]): 60.4%
- % T/C on day 7 (A2780 tumors; [14]): 41.5%
- % T/C on day 10 (A2780 tumors; [14]): 31.1%
- % T/C on day 0 (A2780 tumors; [15]): 95.3%
- % T/C on day 3 (A2780 tumors; [15]): 49.3%
- % T/C on day 7 (A2780 tumors; [15]): 34.0%
- % T/C on day 10 (A2780 tumors; [15]): 19.8%
- IC50 [2]: 8.5 nM
- IC50 [1]: 90 nM
- IC50 [9]: 40 nM
- IC50 [5]: 5 nM
- IC50 ([7]; HepG2, 72 h): 57 nM
- IC50 [8]: 95 nM
